Assay results: US10124035B2, “DISC-1 pathway activators in the control of neurogenesis” (Massachusetts Institute of Technology, priority 2008, dated 2018)
Entries after “also recorded” stand apart in the source; their conditions may differ.

Tested on: TCF reporter in 293T cells
Assay: TCF reporter activity in DISC1 knockdown 293T cells with Wnt3a conditional medium
Format: cell-based
Settings: 16 hours
Method: Primary neural stem cells from E14 brains were infected with control or DISC1 shRNA lentiviruses. 48 hours after to transduction, cells were treated with vehicle or SB-216763 (5 μM) for 16 hours and then pulsed with 10 μM BrdU for 2 hours. Shown is percentage of GFP and BrdU double positive cells to total GFP positive cells (n=3, p<0.05). b. […] 1.5 μg of vector or WT-DISC1 was cotransfected with 0.5 μg control or DISC1 shRNA-2, 0.1 μg TCF reporter, and 10 ng pRL-TK vector into 293T cells. 48 hours after transfection, Wnt3a conditional medium with vehicle, SB-216763, or AR-A104418 was added for another 16 hours.
• Mice. Swiss Webster pregnant female mice were purchased from Taconic (Hudson, N.Y.). • Cell Culture. AHPs were kindly provided by Dr. Gage (Lie, D. C. et al. Wnt signaling to regulates adult hippocampal neurogenesis. Nature 437, 1370-5 (2005)) and cultured under conditions described previously (Palmer, T. D., Takahashi, J. & Gage, F. H. The adult rat hippocampus contains primordial neural stem cells. Mol Cell Neurosci 8, 389-404 (1997)). Primary neural progenitors were isolated from E14 mouse embryos and cultured as described previously (Sanada, K. & Tsai, L. H. G protein betagamma subunits and AGS3 control spindle orientation and asymmetric cell fate of cerebral cortical progenitors. Cell 122, 119-31 (2005)). N2a and 293T cells were cultured in DMEM medium containing 10% FBS, L-glutamine, and penicillin/streptomycin. Wnt3a expressing L cells and untransfected L cells were obtained from ATCC (Manassas, Va.). Wnt3a conditional medium was produced according to the ATCC protocol. To induce AHP differentiation, FGF2 was removed from the culture medium and 1 μM retinoic acid/1% FBS was added to the medium for 4 days. • Reagents. Recombinant Wnt3a protein was obtained from Chemicon (Rosemont, Ill.). FGF2 was obtained from PeproTech (Rocky Hill, N.J.). Recombinant GST-GSK3β was obtained from Active Motif (Carlsbad, Calif.). Recombinant GST-β-catenin and GST-axin were obtained from Millipore (Billerica, Mass.). […]

With `Cn1cc(C2=C(c3ccc(Cl)cc3Cl)C(=O)NC2=O)c2ccccc21` [SB-216763] the “TCF reporter activity in DISC1 knockdown cells” value was “rescued TCF activity in DISC1 knockdown cells to control levels; also recorded: rescues the TCF activation defect caused by DISC1 knockdown”.
